Ki data for 16 compounds are collected here from ChEMBL document CHEMBL1136790, “Identification of 1-arylmethyl-3- (2-aminoethyl)-5-aryluracil as novel gonadotropin-releasing hormone receptor antagonists” (J Med Chem, 2003).

Assay [1] has as its target T1, Gonadotropin-releasing hormone receptor (Homo sapiens, UniProt P30968).
T1 sequence (P30968 whole entry): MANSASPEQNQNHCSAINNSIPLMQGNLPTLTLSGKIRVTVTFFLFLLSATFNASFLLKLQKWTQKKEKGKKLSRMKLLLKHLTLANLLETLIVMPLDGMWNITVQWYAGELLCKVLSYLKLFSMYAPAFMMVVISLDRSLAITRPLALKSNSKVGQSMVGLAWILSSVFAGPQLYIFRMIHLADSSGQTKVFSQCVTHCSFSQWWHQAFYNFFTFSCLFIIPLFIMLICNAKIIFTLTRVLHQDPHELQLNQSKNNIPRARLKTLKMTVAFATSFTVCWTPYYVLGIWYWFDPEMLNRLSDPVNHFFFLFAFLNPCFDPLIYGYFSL
Description: Binding affinity was determined towards human gonadotropin-releasing hormone receptor.

In assay [2] the target is T1, Gonadotropin-releasing hormone receptor. Description: Binding affinity was determined towards human Gonadotropin-releasing hormone receptor.

Take `Cc1c(-c2ccccc2)c(=O)n(CCN(C)CCc2ccccn2)c(=O)n1Cc1c(F)cccc1F`: in assay [1], the affinity, expressed as Ki, was 400 nM.
In assay [1], `Cc1c(-c2ccc3c(c2)OCCO3)c(=O)n(CCN(C)CCc2ccccn2)c(=O)n1Cc1c(F)cccc1F` showed a Ki of 24 nM.
In assay [1], `Cc1c(-c2ccc3c(c2)OCO3)c(=O)n(CCN(C)CCc2ccccn2)c(=O)n1Cc1c(F)cccc1F` had a Ki of 38 nM.
Regarding `COc1ccc(-c2c(C)n(Cc3c(F)cccc3F)c(=O)n(CCN(C)CCc3ccccn3)c2=O)cc1`, the Ki in assay [1] came to 230 nM.
In the case of `COc1cccc(-c2cn(Cc3c(F)cccc3F)c(=O)n(CCN(C)CCc3ccccn3)c2=O)c1`, in assay [1], affinity was put at a Ki of 1700 nM.
On the same count and under the same terms, the same measure for `COc1cccc(-c2c(C)n(Cc3c(F)cccc3F)c(=O)n(CCN3CCC[C@H]3Cc3ccccn3)c2=O)c1`: 130 nM.
With `COc1cccc(-c2c(C)n(Cc3c(F)cccc3F)c(=O)n(CCN3CCCC3c3ccccn3)c2=O)c1` (stereo unspecified), the inhibition constant (Ki) in assay [1] came out at 530 nM.
Still for that read-out and setting: the same measure for `CCc1c(-c2cccc(OC)c2)c(=O)n(CCN(C)CCc2ccccn2)c(=O)n1Cc1c(F)cccc1F`: 2200 nM.
In assay [1], `CCc1cccc(-c2c(C)n(Cc3c(F)cccc3F)c(=O)n(CCN(C)CCc3ccccn3)c2=O)c1` had a Ki of 220 nM. This Ki lies about 10-fold lower than the previous one.
Consider `Cc1c(-c2ccc(Oc3ccccc3)cc2)c(=O)n(CCN(C)CCc2ccccn2)c(=O)n1Cc1c(F)cccc1F`, for which, in assay [1], the affinity, expressed as Ki, was 30 nM.
The compound `Cc1c(-c2cccc(O)c2)c(=O)n(CCN(C)CCc2ccccn2)c(=O)n1Cc1c(F)cccc1F` gave a Ki in assay [1] of 480 nM.
Turning to `COc1cccc(-c2c(C)n(Cc3c(F)cccc3F)c(=O)n(CCNCCc3c[nH]cn3)c2=O)c1`, the affinity in assay [1], expressed as Ki, was 3800 nM.
`COc1cccc(-c2c(C)n(Cc3c(F)cccc3F)c(=O)n(CCN3CCC[C@@H]3Cc3ccccn3)c2=O)c1` registered a Ki in assay [1] of 4800 nM.
Compound `COc1cccc(-c2c(C)n(Cc3c(F)cccc3F)c(=O)n(CCNCCc3ccccc3)c2=O)c1` registered a Ki in assay [1] of 1100 nM.
Same read-out and setting: the figure for `Cc1c(-c2cccc(OC(F)(F)F)c2)c(=O)n(CCN(C)CCc2ccccn2)c(=O)n1Cc1c(F)cccc1F` is 4800 nM.
Turning to `COc1cccc(-c2c(C)n(Cc3c(F)cccc3F)c(=O)n(CCNCc3ccccc3)c2=O)c1`, the Ki in assay [2] amounted to 240 nM.

The term Ki denotes the equilibrium dissociation constant of an inhibitor or competing ligand from its target. A higher Ki goes with a looser hold on the target.
